According to ChEMBL document CHEMBL1201862, “PubChem BioAssay data set” (2004):
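Where inhibition never reached the appropriate level, the endpoint shown equals the highest concentration tested. Otherwise, values were interpolated linearly from a five-concentration, 48-hour dose response in 96-well plates. At the GI50, growth is halved.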 Active and inactive are the calls of the source. Rule as the data show it: active = GI50 up to about 1.1 µM and inactive = higher.

Columns and labels:
Test in all cases: NCI-60 cell line screen, 48 h
[1] = tested on: KM12
[2] = tested on: SW-620
[3] = tested on: SN12C
[4] = tested on: MDA-MB-231
[5] = tested on: PC-3
[6] = tested on: M14
[7] = tested on: OVCAR-4
[8] = tested on: OVCAR-8
[9] = tested on: HCC 2998
[10] = tested on: SF-295
[11] = tested on: UACC-257
[12] = tested on: Hs-578T
[13] = tested on: SF-268
[14] = tested on: SNB-19
[15] = tested on: NCI-H522
[16] = tested on: TK-10
[17] = tested on: HOP-62
[18] = tested on: ACHN
[19] = tested on: A549
[20] = tested on: NCI/ADR-RES
[21] = tested on: U-251
[22] = tested on: HCT-15
[23] = tested on: K562
[24] = tested on: NCI-H23
[25] = tested on: SF-539
[26] = tested on: NCI-H460
[27] = tested on: MOLT-4
[28] = tested on: HL-60
[29] = tested on: OVCAR-5
[30] = tested on: SK-OV-3
[31] = tested on: UACC-62
[32] = tested on: HT-29
[33] = tested on: CAKI-1
[34] = tested on: IGROV-1
[35] = tested on: MDA-MB-435
[36] = tested on: MCF7
[37] = tested on: EKVX
[38] = tested on: DU-145
[39] = tested on: RXF 393
[40] = tested on: OVCAR-3
[41] = tested on: RPMI-8226
[42] = tested on: T47D
[43] = tested on: HCT-116
[44] = tested on: MDA-N
[45] = tested on: BT-549
[46] = tested on: LOX IMVI
[47] = tested on: SK-MEL-2
[48] = tested on: COLO 205
[49] = tested on: SK-MEL-5
[50] = tested on: NCI-H226
[51] = tested on: UO-31
[52] = tested on: 786-0
[53] = tested on: CCRF-CEM
[54] = tested on: SK-MEL-28
[55] = tested on: SNB-75
[56] = tested on: HOP-92
[57] = tested on: Malme-3M
[58] = tested on: A498

CCOc1ccc(NC(=S)N/C=C(/C(C)=O)C(=O)Nc2ccccc2C)cc1
GI50 [1]: > 100 µM (inactive) | GI50 [2]: > 100 µM (inactive) | GI50 [3]: > 100 µM (inactive) | GI50 [4]: > 100 µM (inactive) | GI50 [5]: > 100 µM (inactive) | GI50 [6]: > 100 µM (inactive) | GI50 [7]: 59.8 µM (inactive) | GI50 [8]: > 100 µM (inactive) | GI50 [9]: > 100 µM (inactive) | GI50 [10]: > 100 µM (inactive) | GI50 [11]: > 100 µM (inactive) | GI50 [12]: > 100 µM (inactive) | GI50 [13]: > 100 µM (inactive) | GI50 [14]: > 100 µM (inactive) | GI50 [15]: > 100 µM (inactive) | GI50 [16]: > 100 µM (inactive) | GI50 [17]: > 100 µM (inactive) | GI50 [18]: > 100 µM (inactive) | GI50 [19]: > 100 µM (inactive) | GI50 [20]: > 100 µM (inactive) | GI50 [21]: > 100 µM (inactive) | GI50 [22]: > 100 µM | GI50 [23]: > 100 µM (inactive) | GI50 [24]: > 100 µM (inactive) | GI50 [25]: > 100 µM (inactive) | GI50 [26]: > 100 µM (inactive) | GI50 [27]: > 100 µM (inactive) | GI50 [28]: > 100 µM (inactive) | GI50 [29]: > 100 µM (inactive) | GI50 [30]: > 100 µM (inactive) | GI50 [31]: > 100 µM (inactive) | GI50 [32]: > 100 µM (inactive) | GI50 [33]: > 100 µM (inactive) | GI50 [34]: > 100 µM (inactive) | GI50 [35]: > 100 µM (inactive) | GI50 [36]: > 100 µM (inactive) | GI50 [37]: > 100 µM (inactive) | GI50 [38]: > 100 µM (inactive) | GI50 [39]: > 100 µM (inactive) | GI50 [40]: > 100 µM (inactive) | GI50 [41]: 7.35 µM (inactive) | GI50 [42]: > 100 µM (inactive) | GI50 [43]: > 100 µM (inactive) | GI50 [44]: > 100 µM (inactive) | GI50 [45]: > 100 µM (inactive) | GI50 [46]: > 100 µM (inactive) | GI50 [47]: > 100 µM (inactive) | GI50 [48]: > 100 µM (inactive) | GI50 [49]: > 100 µM (inactive) | GI50 [50]: > 100 µM (inactive) | GI50 [51]: > 100 µM (inactive) | GI50 [52]: > 100 µM (inactive)

COc1cnnc2c(C)c(-c3ccccc3)nn12
GI50 [1]: > 75.2 µM (inactive) | GI50 [2]: > 100 µM (inactive) | GI50 [3]: 30.1 µM (inactive) | GI50 [4]: > 61.9 µM (inactive) | GI50 [5]: > 86.5 µM (inactive) | GI50 [6]: > 68.4 µM (inactive) | GI50 [7]: > 79.4 µM (inactive) | GI50 [8]: > 100 µM (inactive) | GI50 [9]: > 100 µM (inactive) | GI50 [10]: > 78.7 µM (inactive) | GI50 [11]: > 90.8 µM (inactive) | GI50 [12]: > 66.1 µM (inactive) | GI50 [13]: 82.4 µM (inactive) | GI50 [14]: > 77.6 µM (inactive) | GI50 [53]: > 73.1 µM (inactive) | GI50 [15]: > 93.5 µM (inactive) | GI50 [16]: > 100 µM (inactive) | GI50 [17]: > 69.3 µM (inactive) | GI50 [18]: 68.9 µM (inactive) | GI50 [19]: > 95.9 µM (inactive) | GI50 [20]: > 100 µM (inactive) | GI50 [21]: > 70.3 µM (inactive) | GI50 [22]: > 100 µM | GI50 [23]: > 100 µM (inactive) | GI50 [24]: > 100 µM (inactive) | GI50 [54]: 71.9 µM (inactive) | GI50 [25]: > 100 µM (inactive) | GI50 [26]: 66.1 µM (inactive) | GI50 [55]: 20 µM (inactive) | GI50 [27]: > 83.6 µM (inactive) | GI50 [28]: > 100 µM (inactive) | GI50 [29]: > 100 µM (inactive) | GI50 [30]: 47.6 µM (inactive) | GI50 [31]: 42.4 µM (inactive) | GI50 [32]: > 100 µM (inactive) | GI50 [33]: 57 µM (inactive) | GI50 [34]: 38.4 µM (inactive) | GI50 [35]: 77.4 µM (inactive) | GI50 [36]: > 100 µM (inactive) | GI50 [56]: 59.3 µM (inactive) | GI50 [37]: > 100 µM (inactive) | GI50 [38]: 24.3 µM (inactive) | GI50 [39]: 0.436 µM (active) | GI50 [40]: 59.2 µM (inactive) | GI50 [41]: 56.5 µM (inactive) | GI50 [42]: 2.6 µM (inactive) | GI50 [43]: 77.1 µM (inactive) | GI50 [44]: 60.5 µM (inactive) | GI50 [45]: > 100 µM (inactive) | GI50 [57]: 39.6 µM (inactive) | GI50 [46]: > 100 µM (inactive) | GI50 [58]: 29.2 µM (inactive) | GI50 [47]: 40.4 µM (inactive) | GI50 [48]: > 100 µM (inactive) | GI50 [49]: > 75.5 µM (inactive) | GI50 [50]: > 100 µM (inactive) | GI50 [51]: 32.5 µM (inactive) | GI50 [52]: > 84.9 µM (inactive)

C[C@]12CC[C@@H]3c4ccc(O)cc4CC[C@H]3[C@@H]1CC[C@@H]2OC(=O)CCc1ccccc1
GI50 [1]: 27.7 µM (inactive) | GI50 [2]: 23.3 µM (inactive) | GI50 [3]: 22.9 µM (inactive) | GI50 [4]: 17.1 µM (inactive) | GI50 [5]: 18.3 µM (inactive) | GI50 [6]: 17.6 µM (inactive) | GI50 [7]: 17.5 µM (inactive) | GI50 [8]: 22.8 µM (inactive) | GI50 [9]: 19.6 µM (inactive) | GI50 [10]: 19.3 µM (inactive) | GI50 [11]: 17.9 µM (inactive) | GI50 [12]: 5.14 µM (inactive) | GI50 [13]: 17.8 µM (inactive) | GI50 [14]: 18.5 µM (inactive) | GI50 [53]: 22.5 µM (inactive) | GI50 [15]: 15.3 µM (inactive) | GI50 [16]: 18.5 µM (inactive) | GI50 [17]: 22.1 µM (inactive) | GI50 [18]: 18.7 µM (inactive) | GI50 [19]: 22.3 µM (inactive) | GI50 [20]: 16.6 µM (inactive) | GI50 [21]: 18.7 µM (inactive) | GI50 [22]: 14.4 µM | GI50 [23]: 11 µM (inactive) | GI50 [24]: 17.7 µM (inactive) | GI50 [54]: 20.1 µM (inactive) | GI50 [26]: 19.1 µM (inactive) | GI50 [55]: 15.1 µM (inactive) | GI50 [27]: 17 µM (inactive) | GI50 [28]: 20.1 µM (inactive) | GI50 [29]: 44.4 µM (inactive) | GI50 [30]: 15.5 µM (inactive) | GI50 [31]: 13.9 µM (inactive) | GI50 [32]: 19.6 µM (inactive) | GI50 [33]: 18.4 µM (inactive) | GI50 [34]: 20.8 µM (inactive) | GI50 [35]: 13.1 µM (inactive) | GI50 [36]: 17.5 µM (inactive) | GI50 [56]: 19.1 µM (inactive) | GI50 [37]: 10.8 µM (inactive) | GI50 [38]: 19.5 µM (inactive) | GI50 [39]: 16.4 µM (inactive) | GI50 [40]: 20.5 µM (inactive) | GI50 [41]: 15.7 µM (inactive) | GI50 [42]: 17.7 µM (inactive) | GI50 [43]: 20.3 µM (inactive) | GI50 [44]: 7.46 µM (inactive) | GI50 [45]: 18.5 µM (inactive) | GI50 [57]: 17.6 µM (inactive) | GI50 [46]: 18.2 µM (inactive) | GI50 [58]: 17.4 µM (inactive) | GI50 [47]: 15.2 µM (inactive) | GI50 [48]: 19.6 µM (inactive) | GI50 [49]: 17.1 µM (inactive) | GI50 [50]: 19.1 µM (inactive) | GI50 [51]: 16 µM (inactive) | GI50 [52]: 34 µM (inactive)
